Assay results from ChEMBL document CHEMBL4184110 (Bioorg Med Chem Lett, 2018).
≈ marks a conversion by molar mass, not a printed value.

Columns and labels:
[1] = target: T1, Thyroid hormone receptor alpha (Homo sapiens, UniProt P10827); assay: Antagonist activity at CMV-fused TRalpha-LBD-GAL4-DBD (unknown origin) expressed in HEK293T cells assessed as inhibition of T3-induced receptor transactivation after 16 hrs by bright-Glo luciferase reporter gene assay; format: cell-based
T1 sequence (P10827 whole entry): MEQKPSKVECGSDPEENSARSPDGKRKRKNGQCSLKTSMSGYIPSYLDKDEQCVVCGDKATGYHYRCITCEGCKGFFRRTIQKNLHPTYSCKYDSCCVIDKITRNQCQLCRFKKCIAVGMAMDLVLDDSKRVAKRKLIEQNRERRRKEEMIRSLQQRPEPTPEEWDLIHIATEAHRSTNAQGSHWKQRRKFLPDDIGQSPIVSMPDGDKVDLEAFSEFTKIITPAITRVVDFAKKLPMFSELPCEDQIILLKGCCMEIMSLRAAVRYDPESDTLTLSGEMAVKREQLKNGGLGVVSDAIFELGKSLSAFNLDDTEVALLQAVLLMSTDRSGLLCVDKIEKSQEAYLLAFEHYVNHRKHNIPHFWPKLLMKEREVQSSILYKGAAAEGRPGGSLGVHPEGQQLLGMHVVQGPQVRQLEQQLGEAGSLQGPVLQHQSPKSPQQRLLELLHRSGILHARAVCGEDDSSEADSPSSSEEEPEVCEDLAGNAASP

[2] = target: T2, Peroxisome proliferator-activated receptor alpha (Homo sapiens, UniProt Q07869); assay: Antagonist activity at CMV-fused PPARalpha-LBD-GAL4-DBD (unknown origin) expressed in HEK293T cells assessed as inhibition of GW7647-induced receptor transactivation after 16 hrs by bright-Glo luciferase reporter gene assay; format: cell-based
T2 sequence (Q07869 whole entry): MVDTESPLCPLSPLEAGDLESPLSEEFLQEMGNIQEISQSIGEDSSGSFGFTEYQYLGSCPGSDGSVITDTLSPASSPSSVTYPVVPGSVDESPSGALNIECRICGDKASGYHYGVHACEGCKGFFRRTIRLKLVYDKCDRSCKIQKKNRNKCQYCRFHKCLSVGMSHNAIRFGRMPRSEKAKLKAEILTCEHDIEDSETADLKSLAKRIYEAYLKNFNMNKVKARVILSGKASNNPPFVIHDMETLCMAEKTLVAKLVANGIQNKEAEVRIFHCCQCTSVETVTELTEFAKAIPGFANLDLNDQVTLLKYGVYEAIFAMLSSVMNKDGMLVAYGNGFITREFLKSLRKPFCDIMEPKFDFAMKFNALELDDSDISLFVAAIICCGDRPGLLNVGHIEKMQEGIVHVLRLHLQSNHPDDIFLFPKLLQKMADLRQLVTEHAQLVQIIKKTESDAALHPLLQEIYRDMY

[3] = Aqueous solubility of the compound in DMSO at 500 uM by filter based assay; format: physicochemical
Vitamin D3 receptor [4] = target: T3, Vitamin D3 receptor (Homo sapiens, UniProt P11473); assay: Antagonist activity at VP16-fused VDR-LBD (unknown origin) expressed in HEK293T cells assessed as inhibition of ligand-induced GAL4-fused SRC1 coactivator recruitment by two-hybrid luciferase reporter gene assay; format: cell-based
T3 sequence (P11473 whole entry): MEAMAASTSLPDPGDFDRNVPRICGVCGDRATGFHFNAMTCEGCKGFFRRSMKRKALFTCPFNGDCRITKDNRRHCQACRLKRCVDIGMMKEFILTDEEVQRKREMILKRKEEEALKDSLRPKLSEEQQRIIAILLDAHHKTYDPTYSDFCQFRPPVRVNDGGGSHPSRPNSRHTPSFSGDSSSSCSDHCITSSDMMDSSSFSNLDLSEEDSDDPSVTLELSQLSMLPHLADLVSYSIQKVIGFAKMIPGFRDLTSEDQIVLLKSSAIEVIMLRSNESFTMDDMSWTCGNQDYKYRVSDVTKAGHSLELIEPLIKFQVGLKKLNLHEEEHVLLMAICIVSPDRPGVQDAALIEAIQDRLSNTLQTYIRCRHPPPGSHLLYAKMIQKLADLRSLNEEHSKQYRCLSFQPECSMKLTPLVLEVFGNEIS

Vitamin D3 receptor [5] = target: T3, Vitamin D3 receptor; assay: Antagonist activity at CMV-fused VDR (unknown origin) expressed in HEK293T cells assessed as reduction in 24-hydroxylase promoter mediated transcriptional activity by luciferase reporter gene assay; format: cell-based; conditions: read-out: IC50
[6] = target: T4, Peroxisome proliferator-activated receptor gamma (Homo sapiens, UniProt P37231); assay: Antagonist activity at CMV-fused PPARgamma-LBD-GAL4-DBD (unknown origin) expressed in HEK293T cells assessed as inhibition of rosiglitazone-induced receptor transactivation after 16 hrs by bright-Glo luciferase reporter gene assay; format: cell-based
T4 sequence (P37231 whole entry): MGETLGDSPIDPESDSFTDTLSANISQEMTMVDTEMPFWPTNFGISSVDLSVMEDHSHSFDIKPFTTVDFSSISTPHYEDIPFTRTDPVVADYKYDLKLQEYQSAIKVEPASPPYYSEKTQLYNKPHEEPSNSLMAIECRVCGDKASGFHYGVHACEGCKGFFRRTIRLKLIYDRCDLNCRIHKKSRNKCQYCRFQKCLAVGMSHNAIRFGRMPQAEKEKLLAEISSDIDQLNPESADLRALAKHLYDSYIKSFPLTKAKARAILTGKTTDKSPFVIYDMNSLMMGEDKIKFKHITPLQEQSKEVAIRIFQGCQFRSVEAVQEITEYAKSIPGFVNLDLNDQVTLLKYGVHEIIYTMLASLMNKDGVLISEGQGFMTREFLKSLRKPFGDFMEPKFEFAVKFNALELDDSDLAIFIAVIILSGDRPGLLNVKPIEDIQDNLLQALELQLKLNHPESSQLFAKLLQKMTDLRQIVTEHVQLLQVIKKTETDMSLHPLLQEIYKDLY

HEK-293T = assay: Cytotoxicity against HEK293T cells assessed as decrease in cell viability at 100 uM after 18 hrs by Cell Titer-Glo based luminescence assay relative to control; conditions: human
Vitamin D3 receptor [7] = target: T3, Vitamin D3 receptor; assay: Agonist activity at VDR-LBD (unknown origin) assessed as recruitment of alexa fluor 647-labeled SRC2-3 after 30 mins by fluorescence polarization assay

| SMILES | IC50 [1] [µM] | IC50 [2] [µM] | solubility kinetic at 500 µM [3] [µM] | IC50 (Vitamin D3 receptor [4]) [µM] | IC50 (Vitamin D3 receptor [5]) [µM] | IC50 [6] [µM] | Activity (HEK-293T) [%] | EC50 (Vitamin D3 receptor [7]) |
| --- | --- | --- | --- | --- | --- | --- | --- | --- |
| COC(=O)c1ccc(OCc2oc(-c3cccc(OC)c3)nc2C)cc1 | 5.4 | 3.5 | 18.5 (≈ 6.54 µg/mL) | 8.89 | 5.67 | 7.6 | 35.6 | Not Active |
| COC(=O)Cc1ccc(OCc2oc(-c3ccccc3OC)nc2C)cc1 | 8.4 | 8 | 61.6 (≈ 22.6 µg/mL) | 11.1 | 3.82 | 6.3 | 31.2 | Not Active |
| COC(=O)c1cccc(OCc2oc(-c3ccccc3OC)nc2C)c1 | 10.1 | 6.6 | 44.1 (≈ 15.6 µg/mL) | 7.33 | 2.5 | 7.6 | 39.5 | Not Active |
| COC(=O)Cc1ccc(OCc2oc(-c3cccc(OC)c3)nc2C)cc1 | 4.2 | 1.9 | 45.3 (≈ 16.6 µg/mL) | 13.9 | 0.66 | 6.7 | 63.4 | Not Active |
